The results in this text go back to patent publication US11702422B2, “Imidazopyridazines as modulators of IL-17” (Janssen Pharmaceutica NV, priority 2020, dated 2023).

For experiment [1], the target named is IL-17A(FLAG-Tagged): IL-17RA(His-Tagged) (Homo sapiens, UniProt Q16552, K93Q). Kind of experiment: IL-17A(FLAG-Tagged): IL-17RA(His-Tagged) Binding Disruption Eu-HTRF Assay. The settings on record: IL-17A/IL-17RA binding disruption, simple average if tested more than once. An outline of the steps:
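IC50 comes from a one-site competition fit of the HTRF 665/620 nm ratio. Compound dilutions (2-fold, 22 points) were held 1 h rt with FLAG-tagged IL-17A dimer, then His-tagged IL-17RA plus Eu-cryptate anti-FLAG and D2 anti-His antibodies were added for 2 h rt.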

Experiment [2] deals with IL-17A-induced G-CSF production in human normal keratinocyte (NHK). Kind of experiment: NHK Assay: IL-17A-induced G-CSF production in human normal keratinocytes. The experiment is classed as cell-based. As to conditions: 24 h, adult normal human keratinocytes, IL-17A 5 ng/mL, simple average if tested more than once. The method in brief: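 Titrated compound plus recombinant human IL-17A (pre-incubated 1 h, rt) were applied to adult human keratinocytes at 5 ng/mL cytokine, 0.2% DMSO. Cultures ran 24 h at 37° C, and supernatant G-CSF was measured by HTRF to derive IC50.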

UniProt Q16552, sequence (Q16552 with tags, fused parts or gaps K93Q): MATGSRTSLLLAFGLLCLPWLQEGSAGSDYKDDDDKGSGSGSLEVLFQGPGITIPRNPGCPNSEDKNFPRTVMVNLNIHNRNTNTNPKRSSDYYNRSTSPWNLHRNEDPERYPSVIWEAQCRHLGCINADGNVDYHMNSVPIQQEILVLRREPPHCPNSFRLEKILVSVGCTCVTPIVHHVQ

For orientation: IC50 means the point on the concentration scale where inhibition reaches its midpoint. Read a low IC50 as higher potency. For the compound `CCC(NC(=O)CC1CC(F)(F)C1)c1cnn2cc([C@@H](NC(=O)c3nonc3C3CC3)C3CCC(F)(F)CC3)nc2c1` (single isomer, unassigned) [Example 507, 4-Cyclopropyl-N—((S)-(7-((R*)-1-(2-(3,3-difluorocyclobutyl)acetamido)propyl)imidazo[1,2-b]pyridazin-2-yl)(4,4-difluorocyclohexyl)methyl)-1,2,5-oxadiazole-3-carboxamide], the IC50 in experiment [1] is 56 nM; in experiment [2] (Homo sapiens, Keratinocyte), 42 nM.
On to `CC(C)n1ncnc1C(=O)N[C@H](c1cn2ncc(C(NC(=O)CC3CC(F)(F)C3)C3CCOCC3)cc2n1)C1CCC(F)(F)CC1` (stereo in doubt) [Example 537, N—((S)-(7-((R*)-(2-(3,3-Difluorocyclobutyl)acetamido)(tetrahydro-2H-pyran-4-yl)methyl)imidazo[1,2-b]pyridazin-2-yl)(4,4-difluorocyclohexyl)methyl)-1-isopropyl-1H-1,2,4-triazole-5-carboxamide], for which the IC50 in experiment [1] came to 150 nM; in experiment [2] (Homo sapiens, Keratinocyte), 150 nM.
Turning to `O=C(CCC(F)(F)F)N[C@@H](c1cnn2cc([C@@H](NC(=O)c3ncnn3CCCF)C3CCC(F)(F)CC3)nc2c1)C1CC1` [Example 47, N—((S)-(7-((R)-Cyclopropyl(4,4,4-trifluorobutanamido)methyl)imidazo[1,2-b]pyridazin-2-yl)(4,4-difluorocyclohexyl)methyl)-1-(3-fluoropropyl)-1H-1,2,4-triazole-5-carboxamide], the IC50 in experiment [1] stood at 180 nM; in experiment [2] (Homo sapiens, Keratinocyte) it was 640 nM.
For `CC(C)n1ncc(F)c1C(=O)N[C@H](c1cn2ncc([C@H](NC(=O)CCC(F)(F)F)C3CC3)cc2n1)C1CCC(F)(F)CC1` [Example 111, N—((S)-(7-((R)-Cyclopropyl(4,4,4-trifluorobutanamido)methyl)imidazo[1,2-b]pyridazin-2-yl)(4,4-difluorocyclohexyl)methyl)-4-fluoro-1-isopropyl-1H-pyrazole-5-carboxamide], the IC50 in experiment [1] worked out at 52 nM; in experiment [2] (Homo sapiens, Keratinocyte) it was 410 nM.
Take `CC(C)n1nccc1C(=O)N[C@H](c1cn2ncc(C(NC(=O)CCC(F)(F)F)C3CC3)cc2n1)C1CCC(F)(F)CC1` (single isomer, unassigned) [Example 15, N—((S)-(7-((S*)-Cyclopropyl(4,4,4-trifluorobutanamido)methyl)imidazo[1,2-b]pyridazin-2-yl)(4,4-difluorocyclohexyl)methyl)-1-isopropyl-1H-pyrazole-5-carboxamide]: the IC50 in experiment [1] worked out at 1900 nM; in experiment [2], 4800 nM.
On the same counts, the results for `CC(C)n1nccc1C(=O)N[C@H](c1cn2ncc(C(CC#N)NC(=O)CC3CC(F)(F)C3)cc2n1)C1CCC(F)(F)CC1` (single isomer, unassigned) [Example 399, N—((S)-(7-((S*)-2-Cyano-1-(2-(3,3-difluorocyclobutyl)acetamido)ethyl)imidazo[1,2-b]pyridazin-2-yl)(4,4-difluorocyclohexyl)methyl)-1-isopropyl-1H-pyrazole-5-carboxamide] are 310 nM and 94 nM.
Consider `O=C(CCC(F)(F)F)N[C@@H](c1cnn2cc([C@@H](NC(=O)c3cnn(CC4CC(F)(F)C4)n3)C3CCC(F)(F)CC3)nc2c1)C1CC1` [Example 63, N—((S)-(7-((R)-Cyclopropyl(4,4,4-trifluorobutanamido)methyl)imidazo[1,2-b]pyridazin-2-yl)(4,4-difluorocyclohexyl)methyl)-2-((3,3-difluorocyclobutyl)methyl)-2H-1,2,3-triazole-4-carboxamide], for which the IC50 in experiment [1] worked out at 130 nM; in experiment [2] (Homo sapiens, Keratinocyte), 200 nM.
`CCOCC(NC(=O)CC1CC(F)(F)C1)c1cnn2cc([C@@H](NC(=O)c3nonc3C3CC3)C3CCC(F)(F)CC3)nc2c1` (single isomer, unassigned) [Example 527, 4-Cyclopropyl-N—((S)-(7-((R*)-1-(2-(3,3-difluorocyclobutyl)acetamido)-2-ethoxyethyl)imidazo[1,2-b]pyridazin-2-yl)(4,4-difluorocyclohexyl)methyl)-1,2,5-oxadiazole-3-carboxamide]: the IC50 was determined as 57 nM in experiment [1] and 110 nM in experiment [2].
In the case of `O=C(CCC(F)(F)F)N[C@@H](c1cnn2cc([C@@H](NC(=O)c3cc(OC(F)F)ccc3F)C3CCC(F)(F)CC3)nc2c1)C1CC1` [Example 169, N—((S)-(7-((R)-Cyclopropyl(4,4,4-trifluorobutanamido)methyl)imidazo[1,2-b]pyridazin-2-yl)(4,4-difluorocyclohexyl)methyl)-5-(difluoromethoxy)-2-fluorobenzamide], the IC50 in experiment [1] was found to be 37 nM; in experiment [2] (Homo sapiens, Keratinocyte), 200 nM.
On the same counts, the results for `Cc1nccnc1C(=O)N[C@H](c1cn2ncc([C@H](NC(=O)CCC(F)(F)F)C3CC3)cc2n1)C1CCC(F)(F)CC1` [Example 219, N—((S)-(7-((R)-Cyclopropyl(4,4,4-trifluorobutanamido)methyl)imidazo[1,2-b]pyridazin-2-yl)(4,4-difluorocyclohexyl)methyl)-3-methylpyrazine-2-carboxamide] are 2100 nM and more than 20000 nM.
For `CC(C)n1nccc1C(=O)N[C@H](c1cn2ncc([C@H](NC(=O)C[C@@H]3CC3(F)F)C3CC3)cc2n1)C1CCC(F)(F)CC1` (single isomer, unassigned) [Example 141] the same measures were 130 nM and 200 nM.
For `Cc1nonc1C(=O)N[C@H](c1cn2ncc([C@H](NC(=O)CC(C)CC(F)(F)F)C3CC3)cc2n1)C1CCC(F)(F)CC1` (single isomer, unassigned) [Example 350, N—((S)-(7-((R)-Cyclopropyl((R*)-5,5,5-trifluoro-3-methylpentanamido)methyl)imidazo[1,2-b]pyridazin-2-yl)(4,4-difluorocyclohexyl)methyl)-4-methyl-1,2,5-oxadiazole-3-carboxamide] the same measures were 270 nM and 660 nM.
Take `Cc1nonc1C(=O)N[C@H](c1cn2ncc([C@H](NC(=O)CC3CCC3)C3CC3)cc2n1)C1CCC(F)(F)CC1` [Example 247, N—((S)-(7-((R)-(2-Cyclobutylacetamido)(cyclopropyl)methyl)imidazo[1,2-b]pyridazin-2-yl)(4,4-difluorocyclohexyl)methyl)-4-methyl-1,2,5-oxadiazole-3-carboxamide]: the IC50 amounted to 62 nM in experiment [1] and 190 nM in experiment [2] (Homo sapiens, Keratinocyte).
For `O=C(CCC(F)(F)F)N[C@@H](c1cnn2cc([C@@H](NC(=O)c3cncc(CC(F)F)c3)C3CCC(F)(F)CC3)nc2c1)C1CC1` [Example 152, N—((S)-(7-((R)-Cyclopropyl(4,4,4-trifluorobutanamido)methyl)imidazo[1,2-b]pyridazin-2-yl)(4,4-difluorocyclohexyl)methyl)-5-(2,2-difluoroethyl)nicotinamide] the same measures were 32 nM and 180 nM.
On the same counts, the results for `Cc1c(C(=O)N[C@H](c2cn3ncc([C@H](NC(=O)CCC(F)(F)F)C4CC4)cc3n2)C2CCC(F)(F)CC2)cnn1CC(F)F` [Example 50, N—((S)-(7-((R)-Cyclopropyl(4,4,4-trifluorobutanamido)methyl)imidazo[1,2-b]pyridazin-2-yl)(4,4-difluorocyclohexyl)methyl)-1-(2,2-difluoroethyl)-5-methyl-1H-pyrazole-4-carboxamide] are 350 nM and 1000 nM.
On the same counts, the results for `Cc1nonc1C(=O)N[C@H](c1cn2ncc([C@H](NC(=O)COC(F)(F)F)C3CC3)cc2n1)C1CCC(F)(F)CC1` [Example 277, N—((S)-(7-((R)-Cyclopropyl(2-(trifluoromethoxy)acetamido)methyl)imidazo[1,2-b]pyridazin-2-yl)(4,4-difluorocyclohexyl)methyl)-4-methyl-1,2,5-oxadiazole-3-carboxamide] are 180 nM and 690 nM.
With `Cc1nonc1C(=O)N[C@H](c1cn2ncc(C(NC(=O)C(F)(F)CC3CC3)C3(C#N)CC3)cc2n1)C1CCC(F)(F)CC1` (single isomer, unassigned) [Example 435, N—((S)-(7-((R*)-(1-Cyanocyclopropyl)(3-cyclopropyl-2,2-difluoropropanamido)methyl)imidazo[1,2-b]pyridazin-2-yl)(4,4-difluorocyclohexyl)methyl)-4-methyl-1,2,5-oxadiazole-3-carboxamide], the IC50 in experiment [1] was 3800 nM; in experiment [2] (Homo sapiens, Keratinocyte), more than 20000 nM.
For the compound `Cc1noc(C(C)C)c1C(=O)N[C@H](c1cn2ncc([C@H](NC(=O)CCC(F)(F)F)C3CC3)cc2n1)C1CCC(F)(F)CC1` [Example 81, N—((S)-(7-((R)-Cyclopropyl(4,4,4-trifluorobutanamido)methyl)imidazo[1,2-b]pyridazin-2-yl)(4,4-difluorocyclohexyl)methyl)-5-isopropyl-3-methylisoxazole-4-carboxamide], the IC50 in experiment [1] is 5600 nM; in experiment [2] (Homo sapiens, Keratinocyte) it was more than 20000 nM.
For `O=C(CC1CC(F)(F)C1)N[C@@H](c1cnn2cc([C@@H](NC(=O)c3nonc3O)C3CCC(F)(F)CC3)nc2c1)C1CC1` [Example 412, N—((S)-(7-((R)-Cyclopropyl(2-(3,3-difluorocyclobutyl)acetamido)methyl)imidazo[1,2-b]pyridazin-2-yl)(4,4-difluorocyclohexyl)methyl)-4-hydroxy-1,2,5-oxadiazole-3-carboxamide] the same measures were more than 50000 nM and more than 20000 nM.
